Results on seven compounds are retold here after patent publication US6869959B1, “Heterocyclic carboxylic acid derivatives” (Institute of Medicinal Molecular Design Inc., priority 1999, dated 2005).

Data set [1] concerns promyelocytic leukemia cell stain HL-60. As to the kind of experiment: Effect on cell differentiation-inducing action of co-existing retinoid Am80 in HL-60 cell. The conditions noted are these: HL-60, NBT reduction. The data set is classed as cell-based. An excerpt: (§1) By using the above compounds, cell differentiation-inducing activity of each compound alone, and effect on cell differentiation-inducing action of a co-existing retinoid were examined. As a comparative and co-existing retinoid, Am80: 4-[(5,6,7,8-tetrahydro-5,5,8,8-tetramethyl-2-naphthalenyl)carbamoyl]benzoic acid (1×10^−10 M) was used. According to the method described in Japanese Patent Unexamined Publication (KOKAI) No.(Sho)61-76440/1986, promyelocytic leukemia cell stain HL-60 was used, and differentiation into granulocytic cells was determined by observing morphological change and measuring ability to reduce nitroblue tetrazolium (NBT). The ratios of differentiated cells shown in the following table were calculated from the ability of reducing NBT.

Data set [2] has the same test system. Briefly: Cell differentiation-inducing activity test in HL-60 cell, each compound alone. The conditions noted are these: HL-60, NBT reduction. The data set is classed as cell-based.
Source text: as §1

SMILES strings stand for the structures.

For orientation: melting point means the temperature, or range, at which the solid turns liquid. For the compound `Cc1cc2c(cc1N(CC1CC1)c1ncc(C(=O)O)cn1)C(C)(C)CCC2(C)C` [Compound 8, 2-[N-Cyclopropylmethyl-N-(5,6,7,8-tetrahydro-3,5,5,8,8-pentamethylnaphthalen-2-yl)amino]pyrimidine-5-carboxylic Acid], the melting point worked out at 123 °C.
For `CCCN(c1ncc(C(=O)O)cn1)c1cc(C(C)(C)C)ccc1C(C)(C)C` [Compound 11, 2-[N-(3,6-Di-tert-butylphenyl)-N-n-propylamino]pyrimidine-5-carboxylic Acid], the melting point was determined as 219 °C.
The same measure, in the same setting: in the case of `CCCN(c1ncc(C(=O)O)cn1)c1cc2c(cc1C)C(C)(C)CCC2(C)C` [Compound 7, 2-[N-n-Propyl-N-(5,6,7,8-tetrahydro-3,5,5,8,8-pentamethyl-naphthalen-2-yl)amino]pyrimidine-5-carboxylic Acid] it was 193 °C; in that of `CC(C)(C)c1cc(N(CC2CC2)c2ncc(C(=O)O)cn2)cc(C(C)(C)C)c1` [Compound 12, 2-[N-Cyclopropylmethyl-N-(3,5-di-tert-butylphenyl)-amino]pyrimidine5-carboxylic Acid], 194 °C.
Still for that read-out and setting: next, `CN(c1cc(C(C)(C)C)cc(C(C)(C)C)c1)c1ncc(C(=O)O)cn1` [Compound 9, 2-[N-(3,5-Di-tert-butylphenyl)-N-methylamino] pyrimidine-5-carboxylic Acid]: 261 to 263 °C; `Cc1cc2c(cc1Nc1ncc(C(=O)O)cn1)C(C)(C)CCC2(C)C` [Compound 5, 2-[N-(5,6,7,8-Tetrahydro-3,5,5,8,8-pentamethylnaphthalen-2-yl)amino]pyrimidine-5-carboxylic Acid]: 267 °C.
For `CCCN(c1ccc2c(c1)C(C)(C)CCC2(C)C)c1ncc(C(=O)O)cn1` [Compound 3], the “Ratio of differentiated cells by each compound co-existing with 1 × 10^−10 M Am80 (%)” value is 89% in data set [1] (compound concentration 10^−7 M + 1 × 10^−10 M Am80); 87% in data set [1] (compound concentration 10^−8 M + 1 × 10^−10 M Am80); 90% in data set [1] (compound concentration 10^−9 M + 1 × 10^−10 M Am80); 60% in data set [1] (compound concentration 10^−10 M + 1 × 10^−10 M Am80); 27% in data set [1] (compound concentration 10^−11 M + 1 × 10^−10 M Am80). Also, the figures for the “Ratio of differentiated cells by each compound alone (%)” value in data set [2] (compound concentration 10^−6 M), in data set [2] (compound concentration 10^−7 M) and in data set [2] (compound concentration 10^−8 M) were 16%, 14% and 9%, respectively.
